{
  "source": "patent US20100292214A1",
  "about": "“Compounds with Antiparasitic Activity, Applications thereof to the Treatment of Infectious Diseases Caused by Apicomplexans” (commissariat a l'Energie Atomique, priority 2007, published 2010)",
  "key": {"[1]": {"tested_on": "asynchronous 3D7 chloroquine-sensitive P. falciparum infected red blood cells", "assay": "Labeled hypoxanthine incorporation assay (in vitro anti-malarial activity)", "assay_type": "cell-based", "settings": "Plasmodium falciparum, 3D7, Erythrocyte, 3D7 chloroquine-sensitive strain, infected RBC, 48 h contact, [3H]-hypoxanthine incorporation; two independent experiments in duplicates; read-out: IC50 assessed on Plasmodium Falciparum"}, "[2]": {"tested_on": "Toxoplasma gondii RH-β1 strain", "assay": "microbe, parasite or virus in culture", "assay_type": "cell-based", "settings": "Toxoplasma gondii, read-out: IC50 assessed on Toxoplama Gondii"}},
  "data": [
    {"compound": "O=c1[nH]c2ccccc2n1C1CCN(C(=S)OCCN(Cc2ccccc2)Cc2ccccc2)CC1", "note": "[Compound 46, O-2-(dibenzylamino)ethyl 4-(1,2-dihydro-2-oxobenzo[d]imidazol-3-yl)piperidine-1-carbothioate]", "values": [
      {"measurement": "IC50", "setting": "[1]", "result": 2840, "unit": "nM"},
      {"measurement": "IC50", "setting": "[2]", "result": 181, "unit": "nM"}
    ]},
    {"compound": "O=c1[nH]c2ccccc2n1C1CCN(C(=S)OCCOCc2ccccc2)CC1", "note": "[Compound 47, O-2-(benzyloxy)ethyl 4-(1,2-dihydro-2-oxobenzo[d]imidazol-3-yl)piperidine-1-carbothioate]", "values": [
      {"measurement": "IC50", "setting": "[1]", "result": 23200, "unit": "nM"},
      {"measurement": "IC50", "setting": "[2]", "result": 1130, "unit": "nM"}
    ]},
    {"compound": "C[C@@H](COC(=S)N1CCC(n2c(=O)[nH]c3ccccc32)CC1)N(Cc1ccccc1)Cc1ccccc1", "note": "[Compound 48, O—(S)-2-(dibenzylamino)propyl 4-(1,2-dihydro-2-oxobenzo[d]imidazol-3-yl)piperidine-1-carbothioate]", "values": [
      {"measurement": "IC50", "setting": "[1]", "result": 2950, "unit": "nM"},
      {"measurement": "IC50", "setting": "[2]", "result": 1180, "unit": "nM"}
    ]},
    {"compound": "O=c1[nH]c2ccccc2n1C1CCN(CCCN(Cc2ccccc2)Cc2ccccc2)CC1", "note": "[Compound 49, 1-(1-(3-(dibenzylamino)propyl)piperidin-4-yl)-1H-benzo[d]imidazol-2(3H)-one]", "values": [
      {"measurement": "IC50", "setting": "[1]", "result": 1270, "unit": "nM"},
      {"measurement": "IC50", "setting": "[2]", "result": 800, "unit": "nM"}
    ]},
    {"compound": "C[C@@H](CN1CCC(n2c(=O)[nH]c3ccccc32)CC1)N(Cc1ccccc1)Cc1ccccc1", "note": "[Compound 50, 1-(1-((S)-2-(dibenzylamino)propyl)piperidin-4-yl)-1H-benzo[d]imidazol-2(3H)-one]", "values": [
      {"measurement": "IC50", "setting": "[1]", "result": 3340, "unit": "nM"},
      {"measurement": "IC50", "setting": "[2]", "result": 7000, "unit": "nM"}
    ]},
    {"compound": "O=c1[nH]c2ccccc2n1C1CCN(C[C@H](Cc2ccccc2)N(Cc2ccccc2)Cc2ccccc2)CC1", "note": "[Compound 51, 1-(1-((S)-2-(dibenzylamino)-3-phenylpropyl)piperidin-4-yl)-1H-benzo[d]imidazol-2(3H)-one]", "values": [
      {"measurement": "IC50", "setting": "[1]", "result": 2110, "unit": "nM"},
      {"measurement": "IC50", "setting": "[2]", "result": 4000, "unit": "nM"}
    ]},
    {"compound": "O=c1[nH]c2ccccc2n1C1CCN(CCN(Cc2ccccc2)Cc2ccccc2)CC1", "note": "[Compound 52, 1-(1-(2-(dibenzylamino)ethyl)piperidin-4-yl)-1H-benzo[d]imidazol-2(3H)-one]", "values": [
      {"measurement": "IC50", "setting": "[1]", "result": 1570, "unit": "nM"},
      {"measurement": "IC50", "setting": "[2]", "result": 2000, "unit": "nM"}
    ]},
    {"compound": "O=C(OC[C@H](Cc1ccccc1)N(Cc1ccccc1)Cc1ccccc1)N1CCC(n2c(=O)n(S(=O)(=O)c3ccccc3)c3ccccc32)CC1", "note": "[Compound 53, (S)-2-(dibenzylamino)-3-phenylpropyl 4-(1,2-dihydro-3-phenylsulfonyl-2-oxobenzo[d]imidazol-1-yl)piperidine-1-carboxylate]", "values": [
      {"measurement": "IC50", "setting": "[1]", "result": 1940, "unit": "nM"},
      {"measurement": "IC50", "setting": "[2]", "result": 22000, "unit": "nM"}
    ]},
    {"compound": "C[C@@H](COC(=O)N1CCC(n2c(=O)n(S(=O)(=O)c3ccccc3)c3ccccc32)CC1)N(Cc1ccccc1)Cc1ccccc1", "note": "[Compound 54, (S)-2-(dibenzylamino)propyl 4-(2-oxo-3-phenylsulfonyl-2,3-dihydro-1H-benzo[d]imidazol-1-yl)piperidine-1-carboxylate]", "values": [
      {"measurement": "IC50", "setting": "[1]", "result": 230, "unit": "nM"},
      {"measurement": "IC50", "setting": "[2]", "result": 1680, "unit": "nM"}
    ]},
    {"compound": "CCCc1ccc(S(=O)(=O)n2c(=O)n(C3CCN(C(=O)OC[C@H](C)N(Cc4ccccc4)Cc4ccccc4)CC3)c3ccccc32)cc1", "note": "[Compound 55, (S)-2-(dibenzylamino)propyl 4-(2-oxo-3-(4-propylphenylsulfonyl)-2,3-dihydro-1H-benzo[d]imidazol-1-yl)piperidine-1-carboxylate]", "values": [
      {"measurement": "IC50", "setting": "[1]", "result": 9100, "unit": "nM"},
      {"measurement": "IC50", "setting": "[2]", "result": 5500, "unit": "nM"}
    ]},
    {"compound": "C[C@@H](COC(=O)N1CCC(n2c(=O)n(S(=O)(=O)c3ccc(F)cc3)c3ccccc32)CC1)N(Cc1ccccc1)Cc1ccccc1", "note": "[Compound 56, (S)-2-(dibenzylamino)propyl 4-(3-(4-fluorophenylsulfonyl)-2-oxo-2,3-dihydro-1H-benzo[d]imidazol-1-yl)piperidine-1-carboxylate]", "values": [
      {"measurement": "IC50", "setting": "[1]", "result": 330, "unit": "nM"},
      {"measurement": "IC50", "setting": "[2]", "result": 1500, "unit": "nM"}
    ]},
    {"compound": "COc1ccc(S(=O)(=O)n2c(=O)n(C3CCN(C(=O)OC[C@H](C)N(Cc4ccccc4)Cc4ccccc4)CC3)c3ccccc32)cc1", "note": "[Compound 57, (S)-2-(dibenzylamino)propyl 4-(3-(4-methoxyphenylsulfonyl)-2-oxo-2,3-dihydro-1H-benzo[d]imidazol-1-yl)piperidine-1-carboxylate]", "values": [
      {"measurement": "IC50", "setting": "[1]", "result": 410, "unit": "nM"},
      {"measurement": "IC50", "setting": "[2]", "result": 1750, "unit": "nM"}
    ]}
  ]
}
